Results from US12472193B2, “Methods and compositions for treating and preventing respiratory related diseases and conditions with xylitol-headgroup lipid analogs” (National Jewish Health, priority 2017, dated 2025).
Entries after “also recorded” stand apart in the source; their conditions may differ.

How the values were obtained:
TLR 2/1 = target: T1, TLR 2/1 (Mus musculus, UniProt Q9EPQ1+Q9QUN7); test: Pam3Cys-induced TNFα release by RAW264.7 cells (TLR 2/1 antagonism); type: cell-based; conditions: for suppression of TLR 2/1 activation (TNFα release): Pam3Cys, 4 hours; for TLR2/1 antagonist activity: reduction in cytokine secretion vs activating TLR ligand alone
T1 construct: endogenous in cells; host or cells: RAW264.7 (ATCC)
Protocol: The mouse macrophage cell line, RAW264.7, was obtained from ATCC and maintained in DMEM, supplemented with 10% bovine growth serum and 1× penicillin streptomycin. Cells were maintained at 37° C. with 5% carbon dioxide: 95% air atmosphere within the incubator. Experiments were completed in a 96-well plate where cells were seated at a density of 1×10^5 cells per well, 24 prior to stimulation with TLR agonists and antagonists. Lipids were dried under a stream of nitrogen, hydrated with phosphate-buffered saline (PBS) at 37° C. for one hour, followed by water bath sonication to create liposomes. Each condition for cell stimulation and antagonism was prepared in DMEM in a separate tube and consisted of: control, TLR agonist, TLR agonist+lipid, and lipid alone. 100 μL aliquots of medium+agonists+antagonists were added to each well and incubated at 37° C. for 4 hours. Subsequently, the media were collected, diluted and an enzyme-linked immunosorbent assay (ELISA) was performed to quantify TNFα release by cells.
The ability of xylitol lipid analogs to suppress the activation of TLR 2 heterodimers was assessed. Pam3Cys was used to selectively stimulate TLR 2/1 signaling in RAW264.7 cells and MALP-2 was used as a TLR 2/6 selective agonist also in RAW264.7 cells. RAW264.7 cells were stimulated with Pam3Cys in the absence, or presence of PX lipids for 4 hours. Following incubation, media were collected, diluted and analyzed for TNFα release as a consequence of TLR activation. Results for analog activity against TLR 2/1 activation was assessed at two concentrations of phospholipid and are summarized in FIGS. 4A and 4B.
Initially, activity of xylitol lipid analogs was assessed at 100 μg/mL and it was unclear whether there was a real antagonist effect especially when compared to POPG. Experiments were repeated with a 200 μg/mL concentration of lipid to determine the ability of PX lipids to suppress TLR 2/1 activation in the presence of Pam3Cys. […] DPPX could have an effect on TLR 2/1 signaling at high concentrations.

RSV = test: Binding of RSV to solid phase phospholipid; set-up: species or system human RSV A2 strain; conditions: 0.625 nmol lipid, 37° C., 1 hour
Protocol: Lipids were dried under a stream of nitrogen and resuspended in 100% ethanol, and 0.625 nmol was added in a 40 μL volume to each well of a half-area, 96-well plate. The solvent was evaporated under warm air for 90 minutes. 120 μL of blocking solution (150 mM NaCl, 20 mM Tris pH 7, 5 mM CaCl2) containing 3% BSA w/v) was added to each well and incubated for 1 hour at room temperature. Wells were washed 3 times with (150 mM NaCl, 20 mM Tris pH 7, 5 mM CaCl2)) followed by the addition of 40 μL of serial dilutions of RSV (2.5×10^7, 1.25×10^7, 0.625×10^7, 0.3125×10^7, 0.15625×10^7 pfu/mL) in blocking solution to each well and the plate was incubated at 37° C. for 1 hour. The wells were washed 3 times and 40 μL of α-RSV:HRP antibody diluted 1:500 was added and incubated at 37° C. for 1 hour. After washing out the primary antibody, the peroxidase activity was detected with the substrate o-phenylenediamine and the absorbance read at 490 nm to detect degree of binding.
A quantitative plaque assay takes a week to develop without accounting for maintenance of cells. In order to determine the mechanism of antiviral action of PX analogs and explore a faster assay that could easily be mass-produced, lipids were assessed for their ability to bind RSV. A solid phase of 0.625 nmol of lipid was dried onto a 96-well plate. Binding of fluid-phase RSV to the lipids was assessed at viral concentrations of 8×105 to 2.5×10^7 pfu/mL, at 37° C. for 1 hour. Viral binding was detected with a primary anti-RSV antibody conjugated to HRP. The peroxidase reaction was developed with o-phenylenediamine and absorbance measurement at 490 nm.

T1 sequence (Q9QUN7 25-784): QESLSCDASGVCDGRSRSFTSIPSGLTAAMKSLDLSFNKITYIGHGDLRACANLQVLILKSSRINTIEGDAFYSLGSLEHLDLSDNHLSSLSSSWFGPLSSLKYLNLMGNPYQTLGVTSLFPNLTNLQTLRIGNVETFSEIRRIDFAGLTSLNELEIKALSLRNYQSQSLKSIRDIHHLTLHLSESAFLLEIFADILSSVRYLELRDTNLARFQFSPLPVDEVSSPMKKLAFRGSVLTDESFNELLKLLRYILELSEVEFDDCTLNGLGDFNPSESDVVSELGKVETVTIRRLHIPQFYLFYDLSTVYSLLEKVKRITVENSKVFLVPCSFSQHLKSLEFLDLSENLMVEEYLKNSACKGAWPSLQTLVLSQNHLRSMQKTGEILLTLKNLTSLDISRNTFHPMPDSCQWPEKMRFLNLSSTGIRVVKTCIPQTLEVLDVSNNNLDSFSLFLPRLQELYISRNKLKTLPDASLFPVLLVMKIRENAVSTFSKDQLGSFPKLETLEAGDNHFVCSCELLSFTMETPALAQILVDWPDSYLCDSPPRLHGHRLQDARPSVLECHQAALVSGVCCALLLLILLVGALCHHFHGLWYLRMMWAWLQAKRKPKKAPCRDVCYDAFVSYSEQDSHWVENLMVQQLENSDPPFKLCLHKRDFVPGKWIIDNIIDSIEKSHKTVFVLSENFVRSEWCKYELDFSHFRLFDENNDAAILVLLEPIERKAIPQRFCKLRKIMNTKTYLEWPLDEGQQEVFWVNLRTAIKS
T1 sequence (Q9EPQ1 25-795 limits assumed): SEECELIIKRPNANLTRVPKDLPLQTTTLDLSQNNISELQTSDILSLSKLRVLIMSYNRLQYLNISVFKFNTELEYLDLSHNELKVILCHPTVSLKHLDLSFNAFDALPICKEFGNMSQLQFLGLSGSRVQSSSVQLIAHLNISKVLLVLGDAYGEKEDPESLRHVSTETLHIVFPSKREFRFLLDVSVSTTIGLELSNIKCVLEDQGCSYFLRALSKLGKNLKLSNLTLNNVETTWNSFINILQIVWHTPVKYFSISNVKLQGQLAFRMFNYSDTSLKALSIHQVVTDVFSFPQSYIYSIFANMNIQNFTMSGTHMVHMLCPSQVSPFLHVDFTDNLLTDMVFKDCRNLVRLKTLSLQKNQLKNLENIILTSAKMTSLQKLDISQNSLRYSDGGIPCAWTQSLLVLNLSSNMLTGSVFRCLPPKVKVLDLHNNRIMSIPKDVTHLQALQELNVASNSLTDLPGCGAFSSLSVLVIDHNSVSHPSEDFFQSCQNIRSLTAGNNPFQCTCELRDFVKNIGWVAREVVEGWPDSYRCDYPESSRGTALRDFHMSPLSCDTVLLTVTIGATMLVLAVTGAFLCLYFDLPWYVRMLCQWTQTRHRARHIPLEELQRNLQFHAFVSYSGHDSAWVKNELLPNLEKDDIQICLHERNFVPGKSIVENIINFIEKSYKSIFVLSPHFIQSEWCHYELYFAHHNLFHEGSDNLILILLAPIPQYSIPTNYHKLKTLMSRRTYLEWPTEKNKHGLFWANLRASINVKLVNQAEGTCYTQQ

Structure (SMILES): CCCCCCCCCCCCCCOC[C@H](COP(=O)(O)OCC(O)C(O)C(O)CO)OCCCCCCCCCCCCCC (mixture of isomers) [14:0 DEPX, sn-1-O-myristyl, sn-2-O-myristyl sn-3 glycerol phosphoxylitol]
- suppression of TLR 2/1 activation (TNFα release) (TLR 2/1; 100 μg/mL lipid): modest antagonists
- suppression of TLR 2/1 activation (TNFα release) (TLR 2/1; 200 μg/mL lipid): inhibit TLR2/1 activation to almost the same extent as the bioactive lipid POPG; also recorded: strongly suppressed; also recorded: suppressed TLR 2/1 activation
- TLR2/1 antagonist activity (TLR 2/1): + (cutoff being greater than a 50% reduction in cytokine secretion compared to activating TLR ligand alone)
- binding of solid phase lipid to RSV (RSV): bound to the RSV virus strongly

Structure (SMILES): CCCCCCCC/C=C\CCCCCCCC(=O)O[C@H](COC(=O)CCCCCCCCCCCCCCC)COP(=O)([O-])OCC[N+](C)(C)C [POPC, 1-palmitoyl-2-oleoyl-sn-glycero-3-phosphocholine, reference compound]
- suppression of TLR 2/1 activation (TNFα release) (TLR 2/1; 100 μg/mL lipid): unaffected
- suppression of TLR 2/1 activation (TNFα release) (TLR 2/1; 200 μg/mL lipid): unaffected

Structure (SMILES): CCCCCCCC/C=C\CCCCCCCC(=O)O[C@H](COC(=O)CCCCCCCCCCCCCCC)COP(=O)(O)OCC(O)CO (stereo partly shown) [POPG, palmitoyl-oleoyl-phosphatidylglycerol, reference compound]
- suppression of TLR 2/1 activation (TNFα release) (TLR 2/1; 100 μg/mL lipid): markedly inhibited
- suppression of TLR 2/1 activation (TNFα release) (TLR 2/1; 200 μg/mL lipid): markedly inhibited

Structure (SMILES): CCCCCCCCC=CCCCCCCCC(=O)OCC(COP(=O)(O)OCC(O)C(O)C(O)CO)OC(=O)CCCCCCCC=CCCCCCCCC (mixture of isomers) [DOPX, sn-1-oleoyl, sn-2-oleoyl sn-3 glycerol phosphoxylitol]
- suppression of TLR 2/1 activation (TNFα release) (TLR 2/1; 100 μg/mL lipid): modest antagonists
- suppression of TLR 2/1 activation (TNFα release) (TLR 2/1; 200 μg/mL lipid): inhibit TLR2/1 activation to almost the same extent as the bioactive lipid POPG; also recorded: strongly suppressed; also recorded: suppressed TLR 2/1 activation
- TLR2/1 antagonist activity (TLR 2/1): + (cutoff being greater than a 50% reduction in cytokine secretion compared to activating TLR ligand alone)
- binding of solid phase lipid to RSV (RSV): only bind weakly

Structure (SMILES): CCCCCCCCCCCCCCCCCC(=O)OCC(COP(=O)(O)OCC(O)C(O)C(O)CO)OC(=O)CCCCCCCCCCCCCCCCC (stereo not shown) [DSPX, sn-1-stearoyl, sn-2-stearoyl sn-3 glycerol phosphoxylitol]
- suppression of TLR 2/1 activation (TNFα release) (TLR 2/1; 100 μg/mL lipid): ineffective at both concentrations
- suppression of TLR 2/1 activation (TNFα release) (TLR 2/1; 200 μg/mL lipid): not effective antagonists
- binding of solid phase lipid to RSV (RSV): bound strongly

Structure (SMILES): CCCCCCCC/C=C\CCCCCCCC(=O)O[C@H](COC(=O)CCCCCCCCCCCCCCC)COP(=O)(O)OCC(O)C(O)C(O)CO (stereo partly shown) [POPX, sn-1-palmitoyl, sn-2-oleoyly sn-3 glycerol phosphoxylitol]
- suppression of TLR 2/1 activation (TNFα release) (TLR 2/1; 100 μg/mL lipid): modest antagonists
- suppression of TLR 2/1 activation (TNFα release) (TLR 2/1; 200 μg/mL lipid): inhibit TLR2/1 activation to almost the same extent as the bioactive lipid POPG; also recorded: strongly suppressed; also recorded: suppressed TLR 2/1 activation
- TLR2/1 antagonist activity (TLR 2/1): + (cutoff being greater than a 50% reduction in cytokine secretion compared to activating TLR ligand alone)
- binding of solid phase lipid to RSV (RSV): affinity comparable to that of POPG

Structure (SMILES): CCCCCCCCCCCCCC(=O)OC[C@H](COP(=O)(O)OCC(O)C(O)C(O)CO)OC(=O)CCCCCCCCCCCCC (mixture of isomers) [DMPX, sn-1-myristoyl, sn-2-myristoyl sn-3 glycerol phosphoxylitol]
- suppression of TLR 2/1 activation (TNFα release) (TLR 2/1; 100 μg/mL lipid): ineffective at both concentrations
- suppression of TLR 2/1 activation (TNFα release) (TLR 2/1; 200 μg/mL lipid): not effective antagonists
- binding of solid phase lipid to RSV (RSV): bound strongly

Structure (SMILES): CCCCCCCCC=CCCCCCCCCOCC(COP(=O)(O)OCC(O)C(O)C(O)CO)OCCCCCCCCC=CCCCCCCCC (mixture of isomers) [18:1 DEPX, sn-1-O-octadecenyl, sn-2-O-octadecenyl sn-3 glycerol phosphoxylitol]
- suppression of TLR 2/1 activation (TNFα release) (TLR 2/1; 100 μg/mL lipid): modest antagonists
- suppression of TLR 2/1 activation (TNFα release) (TLR 2/1; 200 μg/mL lipid): inhibit TLR2/1 activation to almost the same extent as the bioactive lipid POPG; also recorded: strongly suppressed; also recorded: suppressed TLR 2/1 activation
- TLR2/1 antagonist activity (TLR 2/1): + (cutoff being greater than a 50% reduction in cytokine secretion compared to activating TLR ligand alone)
- binding of solid phase lipid to RSV (RSV): affinity comparable to that of POPG

Structure (SMILES): CCCCCCCCCCCCCCCC(=O)OCC(COP(=O)(O)OCC(O)C(O)C(O)CO)OC(=O)CCCCCCCCCCCCCCC (stereo not shown) [DPPX, sn-1-palmitoyl, sn-2-palmitoyl sn-3 glycerol phosphoxylitol]
- suppression of TLR 2/1 activation (TNFα release) (TLR 2/1; 200 μg/mL lipid): weakly effective
- binding of solid phase lipid to RSV (RSV): bound strongly

Structure (SMILES): CCCCCCC=CCCCCCCCC(=O)OCC(COP(=O)(O)OCC(O)C(O)C(O)CO)OC(=O)CCCCCCCC=CCCCCCC (mixture of isomers) [16:1 DPPX, sn-1-palmitoleoyl, sn-2-palmitoleoyl sn-3 glycerol phosphoxylitol]
- suppression of TLR 2/1 activation (TNFα release) (TLR 2/1; 100 μg/mL lipid): did not appear to suppress activation
- suppression of TLR 2/1 activation (TNFα release) (TLR 2/1; 200 μg/mL lipid): inhibit TLR2/1 activation to almost the same extent as the bioactive lipid POPG; also recorded: strongly suppressed; also recorded: suppressed TLR 2/1 activation
- TLR2/1 antagonist activity (TLR 2/1): + (cutoff being greater than a 50% reduction in cytokine secretion compared to activating TLR ligand alone)
- binding of solid phase lipid to RSV (RSV): only bind weakly

Structure (SMILES): CCCCCC=CCC=CCCCCCCCC(=O)OCC(COP(=O)(O)OCC(O)C(O)C(O)CO)OC(=O)CCCCCCCC=CCC=CCCCCC (mixture of isomers) [18:2 DLPX, sn-1-linoleoyl, sn-2-linoleoyl sn-3 glycerol phosphoxylitol]
- suppression of TLR 2/1 activation (TNFα release) (TLR 2/1; 100 μg/mL lipid): modest antagonists
- suppression of TLR 2/1 activation (TNFα release) (TLR 2/1; 200 μg/mL lipid): strongly suppressed; also recorded: suppressed TLR 2/1 activation
- suppression of TLR 2/1 activation (TNFα release) (TLR 2/1; 200 μg/mL lipid, listed as 18:2 DEPX): inhibit TLR2/1 activation to almost the same extent as the bioactive lipid POPG
- TLR2/1 antagonist activity (TLR 2/1): + (cutoff being greater than a 50% reduction in cytokine secretion compared to activating TLR ligand alone)
- binding of solid phase lipid to RSV (RSV): only bind weakly
